Data taken from patent US10071106B2, “Steroidal nitrones for the treatment and prevention of a cerebral stroke or ischaemia, alzheimer and parkinson disease and amyotrophic lateral sclerosis” (FUNDACIÓN PARA LA INVESTIGACIÓN BIOMÉDICA DEL HOSPITAL …, priority 2013, dated 2018).

What was measured:
[1] = system: primary neuronal cultures taken from the cerebral cortex of rats; assay: Neuroprotection in primary neuronal cultures exposed to OGD 4 h and 24 h reperfusion (MTT cell viability); type: cell-based; conditions: for neuronal viability (versus 100% control): added at beginning of reperfusion, OGD 4 h, R24h
Source text: The neuroprotective power of cholesteronitrones F2 and F3 has been determined in primary neuronal cultures, cultured from 6 to 8 days, taken from the cerebral cortex of rats (Quevedo, C, Salinas, M, Alcázar, A. Initiation factor 2B activity is regulated by protein phosphatase 1, which is activated by the mitogen-activated protein kinase-dependent pathway in insulin-like growth factor 1-stimulated neuronal cells. J. Biol. Chem. 2003, 278, 16579-16586), and subjected to oxygen-glucose deprivation (OGD) (Chioua M, Sucunza D, Soriano E, Hadjipavlou-Litina D, Alcázar A, Ayuso I, Oset-Gasque M J, González M P, Monjas L, Rodríguez-Franco M I, Marco-Contelles J, Samadi A. α-aryl-N-alkyl nitrones, as potential agents for stroke treatment: synthesis, theoretical calculations, antioxidant, anti-inflammatory, neuroprotective, and brain-blood barrier permeability properties. J Med Chem. 2012, 55, 153-168), according to the following protocol:
Cell viability was measured using 3-(4,5-dimethylthiazol-2-yl)-2,5-diphenyl tetrazolium bromide (MTT).
Cholesteronitrones F2 and F3, in a range of concentrations from 0.1 to 100 μM, and from 0.5 to 10 μM, respectively, were added at the beginning of the reperfusion period to evaluate their neuroprotective power, using citicoline, a well-known neuroprotective agent, as a reference compound (Adibhatla, R M, Hatcher, J F, Dempsey, R J. Citicoline: neuroprotective mechanisms in cerebral ischemia. J. Neurochem. 2002, 80, 12-23). Citicoline was tested at variable concentrations, between 1 μM and 1 mM, a neuroprotective effect being found at 10 and 100 μM (87.4 and 88.1%, respectively), the effect of 100 μM being significant compared with the value obtained at R24h (analysis of variance (ANOVA), p<0.0021; and p<0.01, post-Dunnett test].

[2] = system: primary neuronal cultures taken from the cerebral cortex of rats; assay: Long-term neuroprotection in neuronal cultures exposed to OGD 4 h and reperfusion for 5 d (R5d), MTT; type: cell-based
Experimental: To evaluate the neuroprotective power of cholesteronitrones F2 and F3 against ischaemic damage in cultured neurons and simulate long-term reperfusion conditions, the cultures were exposed to OGD for 4 h, and the cells were then subjected to reperfusion for 5 d (R5d).
Cholesteronitrones F2 and F3 (at concentrations of 1.0 and 5.0 μM) were added at the beginning of the reperfusion period and after 48 h of reperfusion, to thus evaluate their long-term neuroprotective power, again using the reference molecule citicoline, according to the protocol of the MTT (see above).

[3] = system: global ischaemia in adult rats; assay: Global ischaemia by four-vessel occlusion, apoptosis by TUNEL method after 5 d reperfusion; type: in vivo; conditions: R5d
Source text: (§1) Global ischaemia was induced in adult rats according to the conventional four-vessel occlusion method [(a) Martín de la Vega C, Burda J, Nemethova M, Quevedo C, Alcázar A, Martín M E, Salinas M. Possible mechanisms involved in the down-regulation of translation during transient global ischaemia in the rat brain. Biochem J 2001, 357, 819-826; (b) García-Bonilla L, Cid C, Alcázar A, Burda J, Ayuso I, Salinas M. Regulation proteins of eukaryotic initiation factor 2-alpha subunit (eIF2a) phosphatase, under ischemic reperfusion and tolerance. J Neurochem 2007, 103, 1368-1380; (c) Ayuso M I, Hernández-Jiménez M, Martín M E, Salinas M, Alcázar A. New hierarchical phosphorylation pathway of the translational repressor eIF4E-binding protein 1 (4E-BP1) in ischemia-reperfusion stress. J Biol Chem 2010, 285, 34355-34363].
(§2) Therefore, the two vertebral arteries were completely cauterized, and after 24 h ischaemia is induced by carotid occlusion by means of small clamps for 15 min; the clamps were then removed and reperfusion was performed. After 5 d (R5d), the animals were sacrificed. The animals were treated with cholesteronitrone F2, diluted in 10% ethanol in saline solution as a carrier, administered intraperitoneally from the beginning of the reperfusion period. Ten animals were tested; one of the five animals treated with carrier died 2 d after reperfusion. All the protocols used in the experiments with animals were performed according to the guidelines approved by the Ethics Committee of Hospital Ramón y Cajal (Madrid). In the model of four-vessel occlusion cerebral ischaemia in rats, after a brief period of ischaemia delayed neurodegeneration is produced in the CA1 region of the hippocampus [(a) Kirino T. Delayed neuronal death. Neuropathology 2000, 20, S95-S97; (b) Pulsinelli W A, Brierley J B, Plum F. Temporal profile of neuronal damage in a model of transient forebrain ischaemia. […]

[4] = system: global ischaemia in adult rats; assay: Global ischaemia by four-vessel occlusion, neuronal death by Fluoro-Jade B after 5 d reperfusion; type: in vivo; conditions: R5d, 0.1 mg/kg intraperitoneally
Source text: as §1, §2

[5] = 1 μM, added at the beginning of reperfusion
[6] = 5 μM, added at the beginning of reperfusion

Structure (SMILES): CC(C)CCC[C@@H](C)[C@H]1CC[C@H]2[C@@H]3CCC4=C/C(=[N+](/C)[O-])CC[C@]4(C)[C@H]3CC[C@]12C [cholesteronitrone F3, (Z)—N-((8S,9S,10R,13R,14S,17R)-10,13-dimethyl-17-((R)-6-methylheptan-2-yl)-7,8,9,11,12,13,14,15,16,17-decahydro-1H-cyclopenta[a]phenanthren-3(2H,6H,10H)-ylidene)methanamine oxide]
- Neuroprotection (%) ([1]; 0.5 μM, OGD conditions): <0%
- Neuroprotection (%) ([1]; 1.0 μM, OGD conditions): 18.8 ± 1.1%
- Neuroprotection (%) ([1]; 5.0 μM, OGD conditions): 21.7 ± 1.2%
- Neuroprotection (%) ([1]; 10 μM, OGD conditions): 0.8 ± 0.07%
- significant increase of neuronal viability during reperfusion ([1]; 1 or 5 μM, compared with R24h): not
- neuronal viability in R5d experiment (versus 100% control) [2, 5]: 105.6%
- neuronal viability in R5d experiment (versus 100% control) ([2]; 5 μM, added after 48 h of reperfusion): 97.8%
- neuronal viability in R5d experiment (versus 100% control) [2, 6]: 118.6%

Structure (SMILES): C[N+](C)(C)CCOP(=O)(O)OP(=O)([O-])OC[C@H]1O[C@@H](n2ccc(N)nc2=O)[C@H](O)[C@@H]1O [citicoline, reference compound]
- neuronal viability (versus 100% control) ([1]; 10 μM): 87.4%
- Neuroprotection (%) ([1]; 100 μM, OGD conditions): 50.2 ± 1.26%
- neuronal viability (versus 100% control) ([1]; 100 μM): 88.1%
- neuronal viability in R5d experiment (versus 100% control) ([2]; 100 μM, added after 48 h of reperfusion): 74.6%
- neuronal viability in R5d experiment (versus 100% control) ([2]; 100 μM, added at the beginning of reperfusion): 76.0%

Structure (SMILES): CC(C)CCC[C@@H](C)[C@H]1CC[C@H]2[C@@H]3CCC4=C/C(=[N+](\C)[O-])CC[C@]4(C)[C@H]3CC[C@]12C [cholesteronitrone F2, (E)-N-((8S,9S,10R,13R,14S,17R)-10,13-dimethyl-17-((R)-6-methylheptan-2-yl)-7,8,9,11,12,13,14,15,16,17-decahydro-1H-cyclopenta[a]phenanthren-3(2H,6H,10H)-ylidene)methanamine oxide]
- Neuroprotection (%) ([1]; 0.1 μM, OGD conditions): 9.6 ± 0.5%
- Neuroprotection (%) ([1]; 0.5 μM, OGD conditions): 49.3 ± 3.6%
- Neuroprotection (%) ([1]; 1.0 μM, OGD conditions): 54.3 ± 1.3 %
- neuronal viability (versus 100% control) ([1]; 1 μM): 89.1%
- neuroprotection compared with citicoline ([1]; 5 μM, OGD conditions): significantly higher neuroprotection than that observed for citicoline
- Neuroprotection (%) ([1]; 5.0 μM, OGD conditions): 80.7 ± 2.7 %
- neuronal viability (versus 100% control) ([1]; 5 μM): 95.5%
- Neuroprotection (%) ([1]; 10 μM, OGD conditions): 47.2 ± 1.4%
- Neuroprotection (%) ([1]; 50 μM, OGD conditions): <0%
- Neuroprotection (%) ([1]; 100 μM, OGD conditions): <0%
- neuronal apoptotic death, TUNEL-positive ([3]; CA1 area, carrier 64.1±7.1): 48.5±0.4 nuclei per field
- neuronal apoptotic death, TUNEL-positive ([3]; cerebral cortex, carrier 7.2±3.8): 1±0.5 nuclei per field
- neuronal apoptotic death, TUNEL-positive ([3]; lateral cortex, carrier 13.3±6.2): 4.3±1.4
- neuronal viability in R5d experiment (versus 100% control) ([2]; 1 μM, added after 48 h of reperfusion): 95.7%
- neuronal viability in R5d experiment (versus 100% control) [2, 5]: 110.6%
- neuronal viability in R5d experiment (versus 100% control) [2, 6]: 118.2%
- neuronal death, Fluoro-Jade B ([4]; CA1 region, saline/carrier 70.4±2.4): 55.1±3.4 cells per field
- neuronal death, Fluoro-Jade B ([4]; cerebral cortex, carrier 6.7±3.5): 0±0.1 cells per field
- neuronal death, Fluoro-Jade B ([4]; lateral cortex, carrier 13.4±3.6): 6.3±2.2
